Measured values: ChEMBL document CHEMBL1128431, “Specific sequestering agents for the actinides. 28. Synthesis and initial evaluation of multidentate 4-carbamoyl-3-hydroxyl-1-methyl-2(1H)-pyridinone ligands for in vivo plutonium(IV) chelation” (1995)

Key:
Mus musculus [1] = assay: % Pu(IV) excreted at 0-4 hr in urine under the effect of 30uM/kg(po, gastric intubation) of ligand administered 3 min after iv injection of Pu(IV) citrate; type: functional
Mus musculus [2] = assay: %Pu(IV) excreted after 24 hr in GI contents and feces under the effect of 30uM/kg(po, gastric intubation) of ligand administered 3 min after iv injection of Pu(IV) citrate; type: functional
Mus musculus [3] = assay: Percent of Pu(IV) retained after 24 hours in soft tissue of mice under the effect of 30 umol/kg (i.p.) of ligand administered 1 hr after iv injection of Pu(IV) citrate; type: functional
Mus musculus [4] = assay: Percent of Pu(IV) excreted after 24 hours in GI contents and feces under the effect of 30 umol/kg (i.p.) of ligand administered 1 hr after iv injection of Pu(IV) citrate; type: functional
Mus musculus [5] = assay: % Pu(IV) retained after 24 hours in skeleton of mice under the effect of 30uM/kg(po, gastric intubation) of ligand administered 3 min after iv injection of Pu(IV) citrate; type: functional
Mus musculus [6] = assay: Percent of Pu(IV) retained after 24 hours in whole body of mice under the effect of 30 umol/kg (i.p.) of ligand administered 1 hr after iv injection of Pu(IV) citrate; type: functional
Mus musculus [7] = assay: Percent of Pu(IV) excreted after 24 hours in urine under the effect of 30 umol/kg (i.p.) of ligand administered 1 hr after iv injection of Pu(IV) citrate; type: functional
Mus musculus [8] = assay: % Pu(IV) retained after 24 hours in liver of mice under the effect of 30uM/kg(po, gastric intubation) of ligand administered 3 min after iv injection of Pu(IV) citrate; type: functional
Mus musculus [9] = assay: % Pu(IV) retained after 24 hr in whole body of mice under the effect of 30uM/kg(po, gastric intubation) of ligand administered 3 min after iv injection of Pu(IV) citrate; type: functional
Mus musculus [10] = assay: % Pu(IV) retained after 24 hours in kidneys of mice under the effect of 30uM/kg(po, gastric intubation) of ligand administered 3 min after iv injection of Pu(IV) citrate; type: functional, Kidney
Mus musculus [11] = assay: Percent of Pu(IV) retained after 24 hours in liver of mice under the effect of 30 umol/kg (i.p.) of ligand administered 1 hr after iv injection of Pu(IV) citrate; type: functional
Mus musculus [12] = assay: Percent of Pu(IV) retained after 24 hours in kidneys of mice under the effect of 30 umol/kg (i.p.) of ligand administered 1 hr after iv injection of Pu(IV) citrate; type: functional, Kidney
Mus musculus [13] = assay: % Pu(IV) excreted at 4-24 hr in urine under the effect of 30uM/kg(po, gastric intubation) of ligand administered 3 min after iv injection of Pu(IV) citrate
Mus musculus [14] = assay: % Pu(IV) retained after 24 hours in soft tissue of mice under the effect of 30uM/kg(po, gastric intubation) of ligand administered 3 min after iv injection of Pu(IV) citrate; type: functional
Mus musculus [15] = assay: Percent of Pu(IV) retained after 24 hours in skeleton of mice under the effect of 30 umol/kg (i.p.) of ligand administered 1 hr after iv injection of Pu(IV) citrate; type: functional

SMILES | ID (Mus musculus [1]) [%] | ID (Mus musculus [2]) [%] | ID (Mus musculus [3]) [%] | ID (Mus musculus [4]) [%] | ID (Mus musculus [5]) [%] | ID (Mus musculus [6]) [%] | ID (Mus musculus [7]) [%] | ID (Mus musculus [8]) [%] | ID (Mus musculus [9]) [%] | ID (Mus musculus [10]) [%] | ID (Mus musculus [11]) [%] | ID (Mus musculus [12]) [%] | ID (Mus musculus [13]) [%] | ID (Mus musculus [14]) [%] | ID (Mus musculus [15]) [%]
O=C(NCCCN(CCCCN(CCCNC(=O)c1cccc(=O)n1O)C(=O)c1cccc(=O)n1O)C(=O)c1cccc(=O)n1O)c1cccc(=O)n1O | 23 | 51 | 1.6 | 57 | 12 | 18 | 25 | 11 | 24 | 0.1 | 8.9 | 0.2 | 2.7 | 13 | 7.5
Cn1ccc(C(=O)NCCN(CCCCN(CCNC(=O)c2ccn(C)c(=O)c2O)CCNC(=O)c2ccn(C)c(=O)c2O)CCNC(=O)c2ccn(C)c(=O)c2O)c(O)c1=O | 20 | 8.6 | 2.1 | 25 | 13 | 29 | 47 | 17 | 32 | 1.3 | 14 | 1.8 | 39 | 1.8 | 11
Cn1ccc(C(=O)NCCCCCNC(=O)c2ccn(C)c(=O)c2O)c(O)c1=O | 10 | 22 | 1.9 | 67 | 24 | 16 | 18 | 25 | 54 | 0.8 | 3.1 | 0.3 | 13 | 3.2 | 10
Cn1ccc(C(=O)NCCCN(CCCNC(=O)c2ccn(C)c(=O)c2O)CCCNC(=O)c2ccn(C)c(=O)c2O)c(O)c1=O | 1.8 | 36 | 2 | 12 | 28 | 33 | 55 | 28 | 60 | 0.7 | 17 | 0.7 | 3.6 | 4.3 | 14
Cn1ccc(C(=O)NCc2cc(CNC(=O)c3ccn(C)c(=O)c3O)cc(CNC(=O)c3ccn(C)c(=O)c3O)c2)c(O)c1=O | 6.4 | 5.2 | 3 | 70 | 34 | 22 | 8 | 40 | 82 | 1.2 | 6.1 | 0.9 | 6 | 7.5 | 12
Cn1ccc(C(=O)NCCN(CCCN(CCNC(=O)c2ccn(C)c(=O)c2O)CCNC(=O)c2ccn(C)c(=O)c2O)CCNC(=O)c2ccn(C)c(=O)c2O)c(O)c1=O | 16 | 22 | 2.7 | 41 | 13 | 24 | 34 | 13 | 30 | 1.2 | 10 | 1.6 | 33 | 3.1 | 9.9
Cn1ccc(C(=O)NCCCNC(=O)c2ccn(C)c(=O)c2O)c(O)c1=O | 16 | 7.9 | 2.6 | 41 | 27 | 27 | 32 | 33 | 66 | 0.8 | 9.5 | 0.5 | 11 | 5 | 14
Cn1ccc(C(=O)NCCN(CCNC(=O)c2ccn(C)c(=O)c2O)CCN(CCNC(=O)c2ccn(C)c(=O)c2O)CCNC(=O)c2ccn(C)c(=O)c2O)c(O)c1=O | 12 | 38 | 2.8 | 45 | 11 | 19 | 36 | 7.6 | 23 | 0.4 | 3.8 | 1.3 | 27 | 4 | 11
Cn1ccc(C(=O)NCCCCCCNC(=O)c2ccn(C)c(=O)c2O)c(O)c1=O | 7.3 | 9.8 | 3.7 | 63 | 25 | 23 | 14 | 44 | 76 | 0.6 | 6.5 | 0.5 | 6.9 | 6.2 | 12
O=C(NCc1cc(CNC(=O)c2cccc(=O)n2O)cc(CNC(=O)c2cccc(=O)n2O)c1)c1cccc(=O)n1O | – | – | 10 | 43 | – | 47 | 9.6 | – | – | – | 18 | 1.8 | – | – | 17
Cn1ccc(C(=O)NCCN(CCNC(=O)c2ccn(C)c(=O)c2O)CCNC(=O)c2ccn(C)c(=O)c2O)c(O)c1=O | 21 | 34 | 2.7 | 45 | 13 | 20 | 35 | 8.5 | 25 | 0.7 | 5.5 | 0.7 | 21 | 1.9 | 11
CC(=O)N(O)CCCCCNC(=O)CCC(=O)N(O)CCCCCNC(=O)CCC(=O)N(O)CCCCCNC(=O)c1ccn(C)c(=O)c1O | 2.4 | 17 | 19 | 26 | 20 | 53 | 21 | 22 | 60 | 2.4 | 13 | 3 | 20 | 15 | 17
Cn1ccc(C(=O)NCCCCNC(=O)c2ccn(C)c(=O)c2O)c(O)c1=O | 26 | 11 | 1.9 | 63 | 17 | 17 | 19 | 34 | 55 | 0.5 | 3.7 | 0.4 | 8.8 | 3.2 | 11
Cn1ccc(C(=O)NCCOCCNC(=O)c2ccn(C)c(=O)c2O)c(O)c1=O | 14 | 46 | 1.7 | 56 | 18 | 16 | 28 | 11 | 34 | 0.8 | 2.7 | 0.3 | 7.8 | 2.9 | 11
